Activity calls are given as the source filed them. The calls are words filed in the database; no cut-off is given here.
What was measured:
[1] = system: HepG2; experiment: Cytotoxicity against human HepG2 cells assessed as cell viability measured after 48 hrs by MTT assay; format: functional, cell-based; conditions: HepG2, 48 h
[2] = Cmax in male ICR-CD1 mouse liver at 80 mg/kg, po; format: ADME, organism-based
[3] = (§1) Selectivity index, ratio of CC50 for Macaca mulatta hepatocytes to IC50 for antiplasmodial activity against hypnozoite Plasmodium cynomolgi B strain infected in Macaca mulatta hepatocytes incubated with sporozoite containing salivary gland homogenate obtained from dissected Anopheles dirus mosquitoes (infected with Plasmodium cynomolgi B strain) treatment started on day 4 post infection and continued daily for 4 days into fresh changed media until day 8 assessed as Liver stage (LS) activity by measuring prophylactic mode by immunofluorescent staining analysis; format: toxicity, cell-based; conditions: rhesus monkey, read-out: Selectivity Index
[4] = system: Plasmodium falciparum; experiment: Ex vivo antiplasmodial activity against clinical isolate Plasmodium falciparum isolated from Ugandan measured after 72 hrs by growth inhibition assay; format: functional, organism-based
[5] = system: Plasmodium cynomolgi; experiment: as §1, with “Antiplasmodial” for “Selectivity index, ratio of CC50 for Macaca mulatta hepatocytes to IC50 for antiplasmodial”, “schizont” for “hypnozoite”; format: functional, organism-based; conditions: Hepatocyte
[6] = AUCextrap in male ICR-CD1 mouse plasma at 80 mg/kg, po; format: ADME, organism-based
[7] = AUC(0 to infinity) in male ICR-CD1 mouse liver at 80 mg/kg, po; format: ADME, organism-based
[8] = system: Plasmodium falciparum; experiment: Antiplasmodial activity against asexual blood-stage (ABS) ATV-resistant clinical isolate Plasmodium falciparum Tm90-C2B infected in human erythrocytes assessed as reduction in fluorescence measured after 72 hrs by Malaria SYBR Green I-based Fluorescence (MSF) assay; format: functional, organism-based; conditions: Erythrocyte
[9] = Toxicity in CF1 mouse infected with asexual blood-stage (ABS) Plasmodium yoelii MRA-428 assessed as clinical toxicity at 0.3 to 30 mg/kg, po treated 24 hrs post infection measured after 4 days; format: organism-based; conditions: in vivo, dose 0.3-30 mg/kg
[10] = Apparent oral clearance in male ICR-CD1 mouse liver at 80 mg/kg, po; format: ADME, organism-based
[11] = system: Plasmodium yoelii; experiment: In vivo antiplasmodial activity against asexual blood-stage (ABS) Plasmodium yoelii MRA-428 infected in 4-day suppression CF1 mouse model assessed as reduction in parasitemia treated 24 hrs post infection daily measured on day 4; format: functional
[12] = system: Hepatocyte; experiment: (§2) Cytotoxicity against Macaca mulatta hepatocytes assessed as cell viability measured after 48 hrs by MTT assay; format: toxicity, cell-based; conditions: rhesus monkey, 48 h
[13] = as §1, with “radical cure” for “prophylactic”; format: toxicity, cell-based; conditions: rhesus monkey, read-out: Selectivity Index
[14] = system: Plasmodium cynomolgi; experiment: as §1, with “Antiplasmodial” for “Selectivity index, ratio of CC50 for Macaca mulatta hepatocytes to IC50 for antiplasmodial”, “schizont” for “hypnozoite”, “radical cure” for “prophylactic”; format: functional, organism-based; conditions: Hepatocyte
[15] = mouse, microsomes, 1 h
[16] = AUCextrap in male ICR-CD1 mouse liver at 80 mg/kg, po; format: ADME, organism-based
[17] = system: Plasmodium cynomolgi; experiment: as §1, with “Antiplasmodial” for “Selectivity index, ratio of CC50 for Macaca mulatta hepatocytes to IC50 for antiplasmodial”, “radical cure” for “prophylactic”; format: functional, organism-based; conditions: Hepatocyte
[18] = system: Plasmodium cynomolgi; experiment: as §1, with “Antiplasmodial” for “Selectivity index, ratio of CC50 for Macaca mulatta hepatocytes to IC50 for antiplasmodial”; format: functional, organism-based; conditions: Hepatocyte
[19] = as §1, with “schizont” for “hypnozoite”; format: toxicity, cell-based; conditions: rhesus monkey, read-out: Selectivity Index
[20] = system: Plasmodium falciparum; experiment: Antiplasmodial activity against asexual blood-stage (ABS) CQ-sensitive Plasmodium falciparum D6 infected in human erythrocytes assessed as reduction in fluorescence measured after 72 hrs by Malaria SYBR Green I-based Fluorescence (MSF) assay; format: functional, organism-based; conditions: D6, Erythrocyte
[21] = system: Plasmodium falciparum; experiment: Antiplasmodial activity against asexual blood-stage (ABS) MDR Plasmodium falciparum Dd2 infected in human erythrocytes assessed as reduction in fluorescence measured after 72 hrs by Malaria SYBR Green I-based Fluorescence (MSF) assay; format: functional, organism-based; conditions: Dd2, Erythrocyte
[22] = Half life in male ICR-CD1 mouse liver at 80 mg/kg, po; format: ADME, organism-based
[23] = Toxicity in CF1 mouse infected with asexual blood-stage (ABS) Plasmodium yoelii MRA-428 assessed as behavioural change at 0.3 to 30 mg/kg, po treated 24 hrs post infection measured after 4 days; format: organism-based; conditions: in vivo, dose 0.3-30 mg/kg
[24] = AUClast in male ICR-CD1 mouse liver at 80 mg/kg, po; format: ADME, organism-based
[25] = as §1, with “schizont” for “hypnozoite”, “radical cure” for “prophylactic”; format: toxicity, cell-based; conditions: rhesus monkey, read-out: Selectivity Index
[26] = system: Plasmodium berghei; experiment: In vivo antiplasmodial activity against luciferase expressing liver stage Plasmodium berghei ANKA MRA-868 sporozoites infected in Albino C57BL/6 mouse model assessed as protection at 10 mg/kg, po daily measured 24 to 72 hrs by real-time In Vivo Imaging System (IVIS); format: functional; conditions: time lower 24.0 hrs, time upper […]
[27] = system: Plasmodium berghei; experiment: In vivo antiplasmodial activity against luciferase expressing liver stage Plasmodium berghei ANKA MRA-868 sporozoites infected in Albino C57BL/6 mouse model assessed as protection at 4 mg/kg, po daily measured 24 to 72 hrs by real-time In Vivo Imaging System (IVIS); format: functional, organism-based; conditions: time lower 24.0 hrs, time upper […]
[28] = Tmax in male ICR-CD1 mouse plasma at 80 mg/kg, po; format: ADME, organism-based
[29] = human, microsomes, 1 h
[30] = system: Plasmodium yoelii; experiment: In vivo antiplasmodial activity against asexual blood-stage (ABS) Plasmodium yoelii MRA-428 infected in 4-day suppression CF1 mouse model assessed as reduction in parasitemia by measuring cured mouse at 80 mg/kg, po treated 24 hrs post infection daily for 4 days; format: functional, organism-based
[31] = system: Plasmodium yoelii; experiment: In vivo antiplasmodial activity against asexual blood-stage (ABS) Plasmodium yoelii MRA-428 infected in 4-day suppression CF1 mouse model assessed as reduction in parasitemia by measuring cured mouse at 100 mg/kg, po treated 24 hrs post infection daily for 4 days; format: functional, organism-based
[32] = system: Plasmodium yoelii; experiment: In vivo antiplasmodial activity against asexual blood-stage (ABS) Plasmodium yoelii MRA-428 infected in 4-day suppression CF1 mouse model assessed as reduction in parasitemia by measuring protection at 30 mg/kg, po treated 24 hrs post infection daily measured up to 28 days; format: functional, organism-based; conditions: time <= 28.0 day
[33] = system: Plasmodium yoelii; experiment: In vivo antiplasmodial activity against asexual blood-stage (ABS) Plasmodium yoelii MRA-428 infected in 4-day suppression CF1 mouse model assessed as reduction in parasitemia by measuring cured mouse at 100 mg/kg, po single dose treated 24 hrs post infection; format: functional, organism-based
[34] = system: Plasmodium yoelii; experiment: In vivo antiplasmodial activity against asexual blood-stage (ABS) Plasmodium yoelii MRA-428 infected in 4-day suppression CF1 mouse model assessed as reduction in parasitemia by measuring protection at 10 mg/kg, po treated 24 hrs post infection daily for 4 days relative to control; format: functional; parameters: scale not given: the % may be the effect or the level left
[35] = system: Plasmodium yoelii; experiment: In vivo antiplasmodial activity against asexual blood-stage (ABS) Plasmodium yoelii MRA-428 infected in 4-day suppression CF1 mouse model assessed as reduction in parasitemia by measuring cured mouse at 60 mg/kg, po single dose treated 24 hrs post infection; format: functional, organism-based
[36] = in vitro; conditions: human, liver microsomes
[37] = as §2; format: toxicity, cell-based, Hepatocyte; conditions: rhesus monkey
[38] = system: Plasmodium berghei; experiment: In vivo antiplasmodial activity against luciferase expressing liver stage Plasmodium berghei ANKA MRA-868 sporozoites infected in Albino C57BL/6 mouse model assessed as blood stage infection at 40 mg/kg, po daily measured 72 hrs; format: functional, organism-based

Row | SMILES | IC50 [1] | selectivity ratio at 96 h [3] | IC50 [5] | IC50 [8] | Activity [9] | ED90 [11] | CC50 [12] | selectivity ratio at 96 h [13] | IC50 [14] | CLH [15] | IC50 [17] | IC50 [18] | selectivity ratio at 96 h [19] | IC50 [20] | IC50 [21] | Activity [23] | selectivity ratio at 96 h [25] | t1/2 [29] | other results
1 | O=c1c2cc(F)c(Oc3ccc(OC(F)(F)F)cc3)cc2[nH]c2cc(Cl)cc(F)c12 | > 200000 nM | 3.62 | 40 nM | 0.475 nM | Non-toxic | 0.3 mg/kg | 580 nM | 1.04 | 340 nM | 16.1 µL/min/mg | 560 nM | 160 nM | 14.5 | 0.00074 nM | 0.00042 nM | Non-toxic | 1.71 | > 1 h | Cmax [2]: 7980 ng/mL; IC50 [4]: 0.957 nM; AUC [6]: 64.6 ng·h/mL; AUC(0-inf) [7]: 41300 ng·h/mL; CL/F [10]: 1.05 mL/min/kg; ED50 [11]: 0.16 mg/kg; AUC [16]: 3.14%; half-life [22]: 20.9 h; AUC(0-t) [24]: 40000 ng·h/mL; Activity [26]: Not active; Out Of 5 - 0 Mouse Cured; Activity [27]: Not active; Out Of 5 - 0 Mouse Cured; Tmax [28]: 4 h
2 | O=c1c2cc(Oc3ccc(OC(F)(F)F)cc3)ccc2[nH]c2cc(Cl)cc(F)c12 | > 200000 nM | > 60.6 | 30 nM | 599 nM | Non-toxic | 1.98 mg/kg | > 20000 nM | – | > 20000 nM | 45.4 µL/min/mg | > 20000 nM | 330 nM | > 667 | 4.18 nM | 4.27 nM | Non-toxic | – | – | Activity [30]: Active
3 | O=c1c2ccc(OCc3cccc(OC(F)(F)F)c3)cc2[nH]c2cc(Cl)cc(F)c12 | > 200000 nM | 12.6 | 20 nM | 0.977 nM | Non-toxic | – | 3310 nM | 4.66 | 620 nM | 57.4 µL/min/mg | 710 nM | 250 nM | 165 | 0.077 nM | 0.01 nM | Non-toxic | 5.34 | > 1 h | Activity [31]: Active; Activity [32]: Active; Out Of 4 - 3 Mouse Cured
4 | O=c1c2ccc(Oc3ccc(OC(F)(F)F)cc3)cc2[nH]c2ccc(F)c(Cl)c12 | > 200000 nM | 16.7 | 80 nM | 52.8 nM | Non-toxic | 0.33 mg/kg | 8870 nM | 1.31 | 3450 nM | 11.6 µL/min/mg | 6750 nM | 530 nM | 111 | 1.03 nM | 0.84 nM | Non-toxic | 2.57 | > 1 h | Activity [33]: Active; ED50 [11]: 0.29 mg/kg; Activity [34]: 100%; Activity [35]: Active
5 | O=c1c2ccc(Oc3cccc(C(F)(F)F)c3)cc2[nH]c2cc(F)c(Cl)cc12 | > 200000 nM | > 14.4 | 360 nM | 59.4 nM | – | – | – | – | > 20000 nM | 14.2 µL/min/mg | > 20000 nM | 1390 nM | > 55.6 | 5.19 nM | 3.87 nM | – | – | – | half-life at 1 h [36]: > 1 h; CC50 at 48 h [37]: > 20000 nM
6 | O=c1c2ccc(OCc3cccc(OC(F)(F)F)c3)cc2[nH]c2cc(F)cc(Cl)c12 | > 200000 nM | 5.09 | 150 nM | 20.4 nM | Non-toxic | – | 5930 nM | 1.4 | 3520 nM | 33.5 µL/min/mg | 4230 nM | 1170 nM | 39.5 | 0.03 nM | 0.004 nM | Non-toxic | 1.68 | > 1 h | Activity [38]: Active; Out Of 5 - 5 Mouse Cured
7 | O=c1c2ccc(Oc3cccc(OC(F)(F)F)c3)cc2[nH]c2cc(F)c(Cl)cc12 | > 200000 nM | > 23 | 120 nM | 61.2 nM | – | – | – | – | > 20000 nM | < 3.125 µL/min/mg | > 20000 nM | 870 nM | > 167 | 3.57 nM | 3.15 nM | – | – | – | half-life at 1 h [36]: > 1 h; CC50 at 48 h [37]: > 20000 nM
